Assay: wn = mass fraction of the nth substance listed
Conditions: 500 kPa, Liquid, Concentric cylinders viscometry

NCCCO [3-amino-1-propanol] + O
viscosity [mPa·s]
Conditions | w1 = 0.1 | w1 = 0.2 | w1 = 0.3 | w1 = 0.4 | w1 = 0.5 | w1 = 0.6 | w1 = 0.7 | w1 = 0.8 | w1 = 0.9 | w1 = 1
298.15 K | 1.27 | 1.84 | 2.95 | 4.76 | 7.58 | 12.17 | 18.56 | 26.23 | 29.26 | 30.43
303.15 K | 1.14 | 1.62 | 2.5 | 3.97 | 6.18 | 9.64 | 14.5 | 20.98 | 22.76 | 23.87
308.15 K | 1.01 | 1.41 | 2.15 | 3.34 | 5.1 | 7.69 | 11.48 | 15.73 | 17.96 | 19.07
313.15 K | 0.89 | 1.25 | 1.82 | 2.82 | 4.23 | 6.25 | 9.21 | 12.52 | 14.36 | 15.27
318.15 K | 0.81 | 1.12 | 1.59 | 2.42 | 3.59 | 5.17 | 7.5 | 10.09 | 11.6 | 12.36
323.15 K | 0.75 | 1.01 | 1.4 | 2.11 | 3.07 | 4.34 | 6.17 | 8.24 | 9.47 | 10.22
328.15 K | 0.72 | 0.92 | 1.24 | 1.86 | 2.65 | 3.69 | 5.14 | 6.81 | 7.78 | 8.54
333.15 K | 0.66 | 0.84 | 1.1 | 1.66 | 2.31 | 3.17 | 4.33 | 5.68 | 6.47 | 7.12
338.15 K | 0.61 | 0.76 | 0.99 | 1.47 | 2.03 | 2.74 | 3.67 | 4.79 | 5.43 | 6.05
343.15 K | 0.58 | 0.73 | 0.9 | 1.32 | 1.81 | 2.39 | 3.15 | 4.08 | 4.61 | 4.84
348.15 K | 0.57 | 0.7 | 0.82 | 1.2 | 1.64 | 2.09 | 2.72 | 3.51 | 3.93 | 4.17
353.15 K | 0.55 | 0.67 | 0.75 | 1.08 | 1.46 | 1.85 | 2.37 | 3.03 | 3.39 | 3.63
358.15 K | 0.41 | 0.54 | 0.69 | 0.99 | 1.32 | 1.68 | 2.09 | 2.7 | 2.93 | 3.19
363.15 K | 0.39 | 0.49 | 0.65 | 0.93 | 1.25 | 1.51 | 1.86 | 2.4 | 2.56 | 2.73
368.15 K | 0.37 | 0.47 | 0.63 | 0.88 | 1.16 | 1.37 | 1.66 | 2.13 | 2.24 | 2.52
373.15 K | 0.35 | 0.44 | 0.59 | 0.82 | 1.05 | 1.26 | 1.49 | 1.91 | 1.98 | 2.25

Reference: the NIST ThermoML archive (doi:10.1021/acs.jced.7b01035)
